# Measured values as given in patent US20040109832A1, “Di-substituted resorcinols as skin lightening agents” (Unilever Home & Personal Care USA, Division Of Conopco, Inc., priority 2002, published 2004).
# pIC50: −log10 of the molar value.
# Test system: T1, mushroom tyrosinase
# T1 construct: mushroom tyrosinase (Sigma T-7755)
# Assay: Mushroom Tyrosinase Assay
# Assay type: biochemical
# Conditions: for skin lightening effectiveness (tyrosinase inhibition), in words: conclusion from Tables 8 and 9; for Percent of Control: slope ΔAbs 475 nm/min vs ethanol control; for pIC50: L-DOPA substrate, absorbency at 475 nm, pH 7.0, read-out: IC50 (skin lightener concentration that results in 50% tyrosinase inhibition relative to the control)
# Protocol: Mushroom tyrosinase inhibition is indicative of reduction in melanin synthesis, thereby showing skin lightening effect. […] Following an initial measurement of background absorbency at 475-nm, 20 microliters of mushroom tyrosinase (Sigma T-7755; 6050 units/ml) was added and incubated at room temperature. Absorbency is read at 475-nm over the following time points: 0, 2, 4, and 6.5 minutes. The data is plotted as 475-nm absorbency vs. time (minutes) and the slope of the line is calculated (ΔAbs 475 nm/ min).
# [1] = Table 9, Concentration 1 micro M
# [2] = Table 9, Concentration 10 micro M
# [3] = Table 9, Concentration 50 micro M
# [4] = Table 9, Concentration 100 micro M
% of Control (Melanin Synthesis) [1],% of Control (Melanin Synthesis) [2],% of Control (Melanin Synthesis) [3],% of Control (Melanin Synthesis) [4],"skin lightening effectiveness (tyrosinase inhibition), in words",Percent of Control (Concentration 0.0156 micro M),Percent of Control (Concentration 0.0312 micro M),Percent of Control (Concentration 0.0625 micro M),Percent of Control (Concentration 0.125 micro M),Percent of Control (Concentration 0.25 micro M),Percent of Control (Concentration 0.5 micro M),Percent of Control (Concentration 1 micro M),Percent of Control (Concentration 10 micro M),Percent of Control (Concentration 50 micro M),Percent of Control (Concentration 100 micro M),pIC50,"skin lightening effectiveness (tyrosinase inhibition), in words (listed as 4,6-di-Isopropyl resorcinols)",SMILES
95 % of Control,51 % of Control,35 % of Control,15 % of Control,not as effective,–,–,–,–,–,–,–,–,–,–,–,–,"Cc1cc(O)cc(O)c1C [4,5-di-Methyl Resorcinol, 4,5-dimethyl resorcinol]"
48 % of Control,29 % of Control,34 % of Control,39 % of Control,comparable to 4-Ethyl Resorcinol,96.7% of Control,94.9% of Control,93.1% of Control,86.0% of Control,75.2% of Control,60.9% of Control,48.4% of Control,28.7% of Control,34.0% of Control,39.4% of Control,6.12,effective skin lightening compounds,"CC(C)c1cc(C(C)C)c(O)cc1O [4,6-Diisopropyl Resorcinol, 4,6-di-isopropyl resorcinol]"
32 % of Control,25 % of Control,21 % of Control,18 % of Control,–,86% of Control,82% of Control,72% of Control,64% of Control,57% of Control,43% of Control,32% of Control,25% of Control,21% of Control,18% of Control,6.46,–,"CCc1ccc(O)cc1O [4-Ethyl Resorcinol, 4-ethyl resorcinol]"
27 % of Control,29 % of Control,29 % of Control,30 % of Control,effective skin lightening compounds,80.6% of Control,60.9% of Control,46.6% of Control,35.8% of Control,30.4% of Control,28.7% of Control,26.9% of Control,28.7% of Control,28.7% of Control,30.4% of Control,~7.30,–,"CC(C)c1ccc(O)cc1O [4-Isopropyl Resorcinol, 4-isopropyl resorcinol]"
98 % of Control,98 % of Control,100 % of Control,100 % of Control,no activity,–,–,–,–,–,–,–,–,–,–,–,–,"Oc1cccc(O)c1 [Resorcinol, resorcinol]"
